± gives the expanded uncertainty stated by the source.
Experiment: xn = mol fraction of the nth substance listed
Conditions: 101 kPa, Liquid, Scientific instruments device model 9700

## [I-].[K+] [potassium iodide] + C[S+](C)[O-]
309.15 K, x1 = 0.0001281
  electrical conductivity: 0.0079 ± 0.0075 S/m
309.15 K, x1 = 0.0001586
  electrical conductivity: 0.00954 ± 0.0093 S/m
309.15 K, x1 = 0.0003312
  electrical conductivity: 0.0198 ± 0.018 S/m
309.15 K, x1 = 0.0006135
  electrical conductivity: 0.0364 ± 0.022 S/m
309.15 K, x1 = 0.001095
  electrical conductivity: 0.0603 ± 0.019 S/m
309.15 K, x1 = 0.002002
  electrical conductivity: 0.103 ± 0.019 S/m
309.15 K, x1 = 0.005707
  electrical conductivity: 0.243 ± 0.018 S/m
309.15 K, x1 = 0.01
  electrical conductivity: 0.465 ± 0.016 S/m
309.15 K, x1 = 0.0197
  electrical conductivity: 0.823 ± 0.0094 S/m
309.15 K, x1 = 0.04
  electrical conductivity: 1.124 ± 0.009 S/m
309.15 K, x1 = 0.0499
  electrical conductivity: 1.246 ± 0.008 S/m
309.15 K, x1 = 0.0707
  electrical conductivity: 1.286 ± 0.008 S/m
311.15 K, x1 = 0.0001281
  electrical conductivity: 0.00818 ± 0.0078 S/m
311.15 K, x1 = 0.0001586
  electrical conductivity: 0.00991 ± 0.0096 S/m
311.15 K, x1 = 0.0003312
  electrical conductivity: 0.0205 ± 0.018 S/m
311.15 K, x1 = 0.0006135
  electrical conductivity: 0.0376 ± 0.022 S/m
311.15 K, x1 = 0.001095
  electrical conductivity: 0.0621 ± 0.02 S/m
311.15 K, x1 = 0.002002
  electrical conductivity: 0.106 ± 0.02 S/m
311.15 K, x1 = 0.005707
  electrical conductivity: 0.251 ± 0.019 S/m
311.15 K, x1 = 0.01
  electrical conductivity: 0.48 ± 0.017 S/m
311.15 K, x1 = 0.0197
  electrical conductivity: 0.849 ± 0.0097 S/m
311.15 K, x1 = 0.04
  electrical conductivity: 1.161 ± 0.009 S/m
311.15 K, x1 = 0.0499
  electrical conductivity: 1.282 ± 0.008 S/m
311.15 K, x1 = 0.0707
  electrical conductivity: 1.342 ± 0.008 S/m
313.15 K, x1 = 0.0001281
  electrical conductivity: 0.00848 ± 0.008 S/m
313.15 K, x1 = 0.0001586
  electrical conductivity: 0.0103 ± 0.0099 S/m
313.15 K, x1 = 0.0003312
  electrical conductivity: 0.0212 ± 0.019 S/m
313.15 K, x1 = 0.0006135
  electrical conductivity: 0.0389 ± 0.023 S/m
313.15 K, x1 = 0.001095
  electrical conductivity: 0.064 ± 0.02 S/m
313.15 K, x1 = 0.002002
  electrical conductivity: 0.11 ± 0.02 S/m
313.15 K, x1 = 0.005707
  electrical conductivity: 0.258 ± 0.019 S/m
313.15 K, x1 = 0.01
  electrical conductivity: 0.494 ± 0.017 S/m
313.15 K, x1 = 0.0197
  electrical conductivity: 0.874 ± 0.01 S/m
313.15 K, x1 = 0.04
  electrical conductivity: 1.195 ± 0.009 S/m
313.15 K, x1 = 0.0499
  electrical conductivity: 1.319 ± 0.008 S/m
313.15 K, x1 = 0.0707
  electrical conductivity: 1.374 ± 0.008 S/m
315.15 K, x1 = 0.0001281
  electrical conductivity: 0.00879 ± 0.0083 S/m
315.15 K, x1 = 0.0001586
  electrical conductivity: 0.0107 ± 0.01 S/m
315.15 K, x1 = 0.0003312
  electrical conductivity: 0.022 ± 0.019 S/m
315.15 K, x1 = 0.0006135
  electrical conductivity: 0.0401 ± 0.024 S/m
315.15 K, x1 = 0.001095
  electrical conductivity: 0.0658 ± 0.021 S/m
315.15 K, x1 = 0.002002
  electrical conductivity: 0.113 ± 0.021 S/m
315.15 K, x1 = 0.005707
  electrical conductivity: 0.266 ± 0.02 S/m
315.15 K, x1 = 0.01
  electrical conductivity: 0.508 ± 0.018 S/m
315.15 K, x1 = 0.0197
  electrical conductivity: 0.9 ± 0.01 S/m
315.15 K, x1 = 0.04
  electrical conductivity: 1.233 ± 0.01 S/m
315.15 K, x1 = 0.0499
  electrical conductivity: 1.366 ± 0.008 S/m
315.15 K, x1 = 0.0707
  electrical conductivity: 1.408 ± 0.009 S/m
317.15 K, x1 = 0.0001281
  electrical conductivity: 0.00918 ± 0.0085 S/m
317.15 K, x1 = 0.0001586
  electrical conductivity: 0.011 ± 0.011 S/m
317.15 K, x1 = 0.0003312
  electrical conductivity: 0.0227 ± 0.02 S/m
317.15 K, x1 = 0.0006135
  electrical conductivity: 0.0413 ± 0.024 S/m
317.15 K, x1 = 0.001095
  electrical conductivity: 0.0676 ± 0.021 S/m
317.15 K, x1 = 0.002002
  electrical conductivity: 0.116 ± 0.021 S/m
317.15 K, x1 = 0.005707
  electrical conductivity: 0.274 ± 0.021 S/m
317.15 K, x1 = 0.01
  electrical conductivity: 0.522 ± 0.018 S/m
317.15 K, x1 = 0.0197
  electrical conductivity: 0.922 ± 0.011 S/m
317.15 K, x1 = 0.04
  electrical conductivity: 1.271 ± 0.01 S/m
317.15 K, x1 = 0.0499
  electrical conductivity: 1.39 ± 0.009 S/m
317.15 K, x1 = 0.0707
  electrical conductivity: 1.469 ± 0.009 S/m
319.15 K, x1 = 0.0001281
  electrical conductivity: 0.00954 ± 0.0087 S/m
319.15 K, x1 = 0.0001586
  electrical conductivity: 0.0114 ± 0.011 S/m
319.15 K, x1 = 0.0003312
  electrical conductivity: 0.0236 ± 0.02 S/m
319.15 K, x1 = 0.0006135
  electrical conductivity: 0.0424 ± 0.025 S/m
319.15 K, x1 = 0.001095
  electrical conductivity: 0.0694 ± 0.022 S/m
319.15 K, x1 = 0.002002
  electrical conductivity: 0.119 ± 0.022 S/m
319.15 K, x1 = 0.005707
  electrical conductivity: 0.281 ± 0.021 S/m
319.15 K, x1 = 0.01
  electrical conductivity: 0.536 ± 0.019 S/m
319.15 K, x1 = 0.0197
  electrical conductivity: 0.945 ± 0.011 S/m
319.15 K, x1 = 0.04
  electrical conductivity: 1.309 ± 0.01 S/m
319.15 K, x1 = 0.0499
  electrical conductivity: 1.434 ± 0.009 S/m
319.15 K, x1 = 0.0707
  electrical conductivity: 1.527 ± 0.009 S/m
321.15 K, x1 = 0.0001281
  electrical conductivity: 0.01 ± 0.0089 S/m
321.15 K, x1 = 0.0001586
  electrical conductivity: 0.0118 ± 0.011 S/m
321.15 K, x1 = 0.0003312
  electrical conductivity: 0.0245 ± 0.021 S/m
321.15 K, x1 = 0.0006135
  electrical conductivity: 0.0436 ± 0.025 S/m
321.15 K, x1 = 0.001095
  electrical conductivity: 0.0712 ± 0.023 S/m
321.15 K, x1 = 0.002002
  electrical conductivity: 0.122 ± 0.022 S/m
321.15 K, x1 = 0.005707
  electrical conductivity: 0.289 ± 0.022 S/m
321.15 K, x1 = 0.01
  electrical conductivity: 0.549 ± 0.019 S/m
321.15 K, x1 = 0.0197
  electrical conductivity: 0.968 ± 0.011 S/m
321.15 K, x1 = 0.04
  electrical conductivity: 1.344 ± 0.011 S/m
321.15 K, x1 = 0.0499
  electrical conductivity: 1.466 ± 0.009 S/m
321.15 K, x1 = 0.0707
  electrical conductivity: 1.567 ± 0.01 S/m
323.15 K, x1 = 0.0001281
  electrical conductivity: 0.0104 ± 0.009 S/m
323.15 K, x1 = 0.0001586
  electrical conductivity: 0.0122 ± 0.011 S/m
323.15 K, x1 = 0.0003312
  electrical conductivity: 0.0254 ± 0.021 S/m
323.15 K, x1 = 0.0006135
  electrical conductivity: 0.0447 ± 0.026 S/m
323.15 K, x1 = 0.001095
  electrical conductivity: 0.0729 ± 0.023 S/m
323.15 K, x1 = 0.002002
  electrical conductivity: 0.125 ± 0.023 S/m
323.15 K, x1 = 0.005707
  electrical conductivity: 0.296 ± 0.022 S/m
323.15 K, x1 = 0.01
  electrical conductivity: 0.563 ± 0.02 S/m
323.15 K, x1 = 0.0197
  electrical conductivity: 0.988 ± 0.012 S/m
323.15 K, x1 = 0.04
  electrical conductivity: 1.386 ± 0.011 S/m
323.15 K, x1 = 0.0499
  electrical conductivity: 1.523 ± 0.01 S/m
323.15 K, x1 = 0.0707
  electrical conductivity: 1.607 ± 0.01 S/m

From the NIST ThermoML archive (doi:10.1021/je4010678)
